Results taken from patent US8822705B2, “Pharmaceutical composition for preventing and/or treating bone disease, functional food or health food and pharmaceutical preparation comprising thereof as active ingredient” (priority 2006, dated 2014).
“Also recorded” adds a separate entry of the source.

What was measured:
MC3T3-E1 cells [1] = assay: Calcification of calcium by osteoblast, Alizarin red S staining; format: cell-based, mouse
Protocol: (§1) MC3T3-E1 cells, pre-osteoblast cells, were suspended in α-MEM and plated in each well of the 96 well-microplate with 4×10^3 cells/well. Then, they were pre-incubated for 2 days at 37° C., 5% CO2 incubator. On day 3 from the beginning of the pre-incubation, culture medium in the wells were changed to α-MEM containing each concentration of test sample, 50 μg/mL of ascorbic acid and 10 mM β-glycerophosphoric acid, and then incubated for 7 to 21 days. In the incubation, the culture medium in the wells was exchanged in every 3 or 4 days.
Calcification of osteoblast cells were confirmed by Alizarin red S staining.
Effects of the above-mentioned four compounds and glycosides to the calcification of calcium by osteoblast were shown in FIG. 5.

MC3T3-E1 cells [2] = assay: Cytotoxicity by Cell Counting kit-8 or MTT (total cell numbers); format: cell-based, mouse; conditions: for cell number decreasing (cytotoxicity): by 30 μM
Protocol: After incubation of the same condition as described above, cytotoxicity was measured by using the Cell counting kit-8 or MTT according to the conventional method.
Cytotoxicity was measured by using Cell Counting kit-8 or MTT according to conventional method, after MC3T3-E1 was incubated in the same conditions as (2) described above.

MC3T3-E1 cells [3] = assay: Osteoblast differentiation, ALP activity in MC3T3-E1 cells; format: cell-based, mouse; conditions: incubated 7 to 21 days with test sample, absorbance at 405 nm, FIGS. 1A to 1D
Protocol: as §1
After the incubation period, the cells were fixed by using methanol. After drying the dish, activity of alkaline phosphatase (ALP), a marker enzyme of early stage osteoblast differentiation, was measured, and subjected to ALP staining.
In the measurement of ALP activity, a buffer containing 6.7 mM p-nitrophenylphosphate as a substrate, supplemented 2 mM magnesium chloride and 100 mM tris-HCl, pH 8.5. 100 μL of the buffer was plated in each well, incubated in 30 minutes at 37° C. Then, 100 μl of 0.1 N sodium hydroxide was added to the wells to terminate the reaction. After that, the absorbance at 405 nm was measured by using the plate reader and the absorbance value was used as ALP activity.
In ALP staining, the buffer containing 0.1 mg/ml naphtol AS-MX phosphate, 0.6 mg/ml fast blue BB salt, supplemented 2 mM magnesium chloride and 10 mM tris-HCl pH 8.5 was used. 50 μL of the buffer was added to each well of the 96 well-microplate and incubated for 30 minutes to 1 hour to stain.

[4] = system: excised first molar of C57BL/6 mice grafted under capsule of kidney; assay: Graft culture of excised tooth with impregnated agarose beads under kidney capsule, alveolar bone formation; format: in vivo, mouse; conditions: three agarose beads impregnated in 100 μM acerogenin A embedded into dental pulp, 3 weeks graft culture, compared to D-PBS bead negative control; FIG. 4B
Protocol: Agarose beads impregnated in acerogenin A (hereinbelow, it is referred to as “acerogenin A-impregnated beads”) were prepared as follows. acerogenin A was diluted to 100 μM (at final concentration) by using D-PBS. Affi-Gel agarose beads were washed by using PBS. Washed agarose beads were placed in the 1.5 mL Eppendorf tube with flat bottom and 100 μL of the acerogenin A solution was added into it. Then, the tube was incubated at room temperature for 45 minutes to impregnated acerogenin A into the agarose beads. Acerogenin-impregnated agarose beads obtained were used for embedding under dental pulp in below.
Alternatively, as negative control, agarose beads similarly to prepare the acerogenin A-impregnated beads but impregnated in D-PBS without acerogenin A (hereinbelow, it is referred to as “D-PBS-impregnated beads”) were used.
Five days age of […] mice, where their dental roots-periodontal tissue was just before formed, were anesthetized and sacrificed by decapitation. After excised lower jaw of them, the first molars in the lower jaw were excised with dental follicles. For the test group, three acerogenin A-impregnated agarose beads were embedded into the dental pulp of the excised teeth, the first molar in the lower jaw. […]

SMILES | calcification activity level of calcium, rank order (MC3T3-E1 cells [1]) | cell numbers (cytotoxicity) (MC3T3-E1 cells [2]; FIGS. 2A and C) | cell numbers (cytotoxicity) at high concentration (MC3T3-E1 cells [2]; FIGS. 2A and C) | ALP activity (early stage osteoblast differentiation) (MC3T3-E1 cells [3]) | alveolar bone formation of grafted tooth [4] | cell number decreasing (cytotoxicity) (MC3T3-E1 cells [2]; FIGS. 2B and D) | cell numbers (cytotoxicity) (MC3T3-E1 cells [2]; by 100 μM, FIGS. 2B and D)
OC[C@H]1O[C@H](Oc2ccc3cc2Oc2ccc(cc2)CC[C@@H](O)CCCC3)[C@H](O)[C@@H](O)[C@@H]1O [aceroside I, α-D-Glucopyranoside, (12S)-12-hydroxy-2-oxatricyclo[13.2.2.13,7]eicosa-3,5,7(20),15,17,18-hexaen-4-yl (9CI)] | (R)-acerogenin B>aceroside I≅acerogenin A>aceroside B1 | not affected | slightly decreased | enhanced ALP activity; also recorded: dose-dependently enhanced | – | – | –
Oc1ccc2cc1Oc1ccc(cc1)CC[C@H](O)CCCC2 [acerogenin A, 2-Oxatricyclo[13.2.2.13,7]eicosa-3,5,7 (20),15,17,18-hexaene-4,12-diol, (12R)-(9CI)] | (R)-acerogenin B>aceroside I≅acerogenin A>aceroside B1 | not affected | slightly decreased | enhanced ALP activity | prominent extension of alveolar bone formation | – | –
OC[C@H]1O[C@@H](Oc2ccc3cc2Oc2ccc(cc2)CCCC[C@@H](O)CC3)[C@H](O)[C@@H](O)[C@@H]1O [aceroside B1, α-D-Glucopyranoside,(10R)-10-hydroxy-2-oxatricyclo[13.2.2.13,7]eicosa-3,5,7(20),15,17,18-hexaen-4-yl (9CI)] | (R)-acerogenin B>aceroside I≅acerogenin A>aceroside B1 | – | – | enhanced ALP activity | – | not observed | not affected
Oc1ccc2cc1Oc1ccc(cc1)CCCC[C@@H](O)CC2 [(R)-acerogenin B, 2-Oxatricyclo[13.2.2.13,7]eicosa-3,5,7(20),15,17,18-hexaene-4,10-diol, (10R)-(9CI)] | (R)-acerogenin B>aceroside I≅acerogenin A>aceroside B1 | – | – | enhanced ALP activity | – | not observed | not affected
